# According to patent publication US20200282019A1, “METHODS OF TREATING NEURODEGENERATIVE DISEASES” (priority 2017, published 2020):
# “Also recorded” adds a separate entry of the source.
# How the values were obtained:
# BACE1 [1] = assay: BACE1 expression after PACAP treatment; assay type: cell-based, APP-transgenic mice
# From the text: PACAP38 is the full length active peptide.
# (§1) As the amyloid accumulation in AD was contributed by amyloid precursor protein (APP) cleaved by overactive β-secretase (BACE1) and subsequently by γ-secretase, the desirable therapeutic goal is to inhibit BACE1 and/or γ-secretase, while enhancing α-secretase. The inventors used APP-transgenic mice pups to establish cortical neuronal culture with the method that the inventors previously published (Han et al 2014, Neurobiology of Aging). At 14 days, the inventors added PACAP and treated for 72 hours. Then the cells were harvest for BACE1, ADAMS, or other ELISA-based Assays.
# [2] = system: primary cortical neuron cultures; assay: Aβ-induced toxicity, MTT cell survival in primary cortical neuron cultures; assay type: cell-based, mice; details: for cell survival (MTT, control cells normalized to 100%): overnight
# Method: The inventors applied three different doses of Aβ overnight to primary cortical neuron cultures obtained from neonatal mice and examined cell survival using the MTT chemiluminescent assay (FIG. 6). The MTT value of control cells (no Aβ added) was normalized to 100% and all other MTT values of cells incubated with Aβ were presented as a percentage of survival.
# [3] = system: phosphorylated Tau protein at the site of 422; assay: Aβ42-induced Tau phosphorylation at site 422, In-Cell Western in cultured primary neurons; assay type: cell-based
# Method: The cells were fixed in 96 wells plate for In-Cell Western assay. The inventors used an antibody specific to phosphorylated Tau protein at the site of 422 and Tau5 antibody for total Tau quantification. pTau/total Tau ratio was calculated and compared. […] Okadaic acid (OA) is a potent phosphatase inhibitor to test maximal pTau capacity.
# Because Tau hyperphosphorylation is contingent upon Aβ, this in vitro model best epitomizes AD pathogenesis and can differentiate AD from other tauopathy (FTLD, PDD, etc). […] Meanwhile, PACAP38 (lane 4) reduced Aβ-induced Tau phosphorylation and the phosphorylated Tau to actin ratio was 0.5. […] In addition to the phosphorylation site at Thr231 of Tau, the inventors tested pTau 422 using an in-cell Western approach on cultured cells (FIG. 11). PACAP (50 nM) reduces pTau422 by 40%.
# hTau transgenic mice = assay: Morris Water Maze in hTau transgenic mice after intranasal PACAP; assay type: in vivo; details: hTau mice at 10 months, intranasal PACAP 0.1 μg/μl, 3 μl per nostril, 3 times a week, 8 weeks
# Method: The inventors gave intranasal PACAP treatment for a group of hTau transgenic mice and their WT littermates. Starting from the age of 6 months, these groups of mice were given bilateral nostril injection of PACAP (0.1 μg/μl, 3 μl per nostril) 3 times a week for a continuous 8 weeks. Human Tau mice are appropriate model to test Tau phosphorylation and its pathological consequence. In this strain (B6.Cg-Mapttml(EGFP)Klt Tg(MAPT)8cPdav/J, Jackson lab), the intrinsic mice tau was disrupted by inserting eGFP sequence to the first exon of mice tau, but all 6 isoforms of human Tau (both 3R and 4R) were knocked in. The hTau mice show age dependent accumulation of hyperphosphorylated and aggregated tau in cortex and hippocampus, neuronal loss, and cognitive decline. The inventors tested the mice in Morris Water Maze, which is a behavior test approach to examine the spatial recognition and memory function of mice. […] Taken together, PACAP nasal injection decreases AD pathology and improves cognitive performance in two animal models of AD.
# [4] = system: phosphorylated Tau protein at the site of pThr231; assay: Aβ42-induced Tau phosphorylation at Thr231, Western blot in cultured primary neurons; assay type: cell-based
# From the text: The cells were harvested and homogenized for Western blot assay. The inventors used an antibody specific to phosphorylated Tau protein at the site of pThr231 (Pierce-antibody OPA1-03156).
# BACE1 [5] = assay: BACE1 FRET activity assay (Michaelis-Menten) on PACAP-treated cortical neuronal culture; assay type: cell-based, APP-transgenic mice; details: PACAP treatment
# Method: FIG. 7 depicts, in accordance with embodiments herein, that PACAP inhibits BACE1 activity. Left panel: BACE1 activity kinetic was measured and fitted with Michaelis-Menten Model. […] Right panel: steady state endpoint fluorescent units (RFU). Note PACAP reduces the end product by BACE1.
# as §1
# The inventors measured BACE1 activity using a BACE1 FRET assay kit (Panvera, Life technologies) with a customized protocol. The artificial substrate of BACE1 is a short peptide with a rhodamine-derived fluorescent donor coupled to a quenching acceptor (Rh-[…]-Quencher). Upon cleavage by BACE1, the rhodamine donor is released from quencher and emitted fluorescence detected under a wavelength of Ex/Em=545/585 nm. […]
# [6] = system: APP transgenic mice and wild-type littermates; assay: Novel Objects Recognition (NOR) test after intranasal PACAP; assay type: in vivo; details: PACAP-treated WT mice
# Method: (§2) The inventors gave intranasal PACAP treatment to a group of APP transgenic mice and their wild-type littermates. Starting from the age of 6 months, these groups of mice were given bilateral nostril injection of PACAP (0.1 μg/μl, 3 μl per nostril) three times per week for eight continuous weeks. The injection procedure was described by Nonako et al 2012. At the age of 9 months, the inventors sacrificed the mice and examined amyloid plaques in the hippocampal regions using thioflavin-S staining and photographed under fluorescent microscope. These thioflavin-S positive dense core plaques are associated with deleterious effects whereas thioflavin-S negative diffusive amyloid plaques are non-detrimental and often associated with cognitive normal elderly individuals (Serrano-Pozo et al., 2011).
# Next, the inventors performed the Novel Objects Recognition (NOR) test. Briefly, the mice were acclimatized to a square chamber, then two identical objects were placed in the chamber on the second day. On the third day, one of the objects was replaced with a novel object. It is a natural behavior to take more time to explore the new object. The discriminating capacity on the new object vs the old object was calculated as discrimination index (DI) as follows:
# In APP mice, DI change was −110% (n=4), indicating deterioration on cognitive function from 6-9 month (without PACAP treatment). […]
# cultured neurons [7] = assay: Neurite integrity / Aβ-induced synaptic degeneration in cultured neurons; assay type: cell-based; details: PACAP with Aβ42
# Method: (§3) FIG. 12 depicts, in accordance with embodiments herein, the impact of PACAP's administration on synapses. […] Cultured neurons were treated with either nothing (top left), Aβ42 (top middle) or PACAP with Aβ42 (top right). Bottom panel: PACAP enhances synaptic transmissions (EPSCs frequency and amplitude) in cultured neuronal network.
# (§4) Furthermore, PACAP increased the frequency and amplitude of Excitatory Postsynaptic Currents (EPSCs) in cultured neurons without Aβ in the media (FIG. 12 bottom panel). The average EPSCs was 21±5 pA in control (n=7 cells), which was increased to 31±3 pA (n=9 cells) if the cultured neurons were pretreated with PACAP (20 nM) for 72 hours before Patch Clamp recording (p<0.05, one way ANOVA with posthoc Tukey test). PACAP6-38, the truncated non-active version mixed with PACAP38 blocked the effect of PACAP, resulting in an average EPSCs of 24±3 pA (n=6).
# APP transgenic mice [8] = assay: Thioflavin-S dense core amyloid plaques in hippocampal region after intranasal PACAP; assay type: in vivo
# Method: FIG. 13 depicts, in accordance with embodiments herein, the impact of PACAP's administration on plaques in APP transgenic mice in that PACAP reduces dense core amyloid plaque size. A: a typical amyloid plaque in the hippocampal region of an untreated APP transgenic mouse at 9 month age. Bar=20 μM. B: an amyloid plaque in the hippocampal region from an APP transgenic mouse (9 month) after intranasal PACAP treatment. Bar=20 μM.
# as §2
# cultured neurons [9] = assay: Excitatory Postsynaptic Currents (EPSCs), Patch Clamp recording in cultured neurons; assay type: cell-based; details: for average EPSCs: control 21±5 pA
# Method: as §3, §4
# APP transgenic mice [10] = assay: Morris Water Maze (MWM) in APP mice after intranasal PACAP; assay type: in vivo; details: APP mice at 10 months
# Method: (A) APP mice were either treated with intranasal PACAP (n=4) or treated with intranasal saline (n=4). (B) WT mice were either treated with intranasal PACAP (n=3) or saline (n=3).
# as §2
# In APP mice, DI change was −110% (n=4), indicating deterioration on cognitive function from 6-9 month (without PACAP treatment). PACAP treatment slows the declining rate as the DI change was −40% in PACAP-treated APP mice group (n=4). Furthermore, the inventors tested the mice in the Morris Water Maze (MWM), which is a behavior test used to examine the spatial recognition and memory function of mice. […]
substance,measurement,setting,value
Pituitary Adenylate Cyclase Activating Polypeptide [PACAP],BACE1 expression,BACE1 [1]; PACAP38 full length peptide,reduces BACE1 expression
same,PACAP concentration that effectively protects against Aβ42 toxicity,"[2]; Aβ42 1 μM, cultured mouse cortical neurons",≥ 50 nM
same,"cell survival (MTT, control cells normalized to 100%)",[2]; PACAP 50 nM added at the same time as 1 μM Aβ,79±5%
same,"cell survival (MTT, control cells normalized to 100%)",[2]; PACAP 100 nM added at the same time as 1 μM Aβ,87±4%
same,reduction of pTau422,"[3]; PACAP 50 nM, Aβ42 (0.25 μM) treated cells",40%
same,pTau/total Tau ratio,"[3]; PACAP by itself, without Aβ42",did not change Tau phosphorylation
same,reduction of pTau422,"[3]; low dose PACAP 10 nM, Aβ42 treated cells",marginal effect
same,MWM performance,hTau transgenic mice,prevented the deterioration
same,phosphorylated Tau (pTau231) to actin ratio,"[4]; PACAP38 (50 nM) added 24 hours after Aβ42 (0.5 μM), 48 hours, lane 4, non-treated 0.25",0.5
same,"steady state endpoint fluorescent units (RFU), end product by BACE1",BACE1 [5],reduces
same,discrimination index (DI) change,[6],positively changed
same,neurite integrity / Aβ-induced synaptic degeneration,cultured neurons [7],protects Aβ-induced synaptic degeneration; also recorded: protects Aβ induced synaptic degeneration; also recorded: protects neurite integrity
same,dense core amyloid plaque size (average core diameter),"APP transgenic mice [8]; intranasal PACAP 0.1 μg/μl, 3 μl per nostril, three times per week, eight weeks from 6 months, examined at 9 months",smaller size; also recorded: significantly reduced
same,number of amyloid plaques,"APP transgenic mice [8]; intranasal PACAP, APP transgenic mice, 9 month",did not significant change
same,frequency and amplitude of EPSCs,cultured neurons [9]; cultured neurons without Aβ in the media,increased; also recorded: enhances
same,average EPSCs,"cultured neurons [9]; pretreated with PACAP (20 nM) 72 hours, no Aβ",31±3 pA
same,MWM performance,APP transgenic mice [10],prevents the deterioration
PACAP6-38 [reference compound],effect of PAC1 receptor blocker on BACE1 reduction by PACAP,BACE1 [1]; PACAP6-38 with PACAP,antagonized the BACE1 reduction effect of PACAP
same,effect on PACAP reduction of pTau231,"[4]; PACAP6-38 (2 μM) with PACAP38 (50 nM) and Aβ42, lane 3",offsetting the effect of PACAP
same,effect on PACAP enhancement of synaptic transmissions,cultured neurons [9]; PAC1 receptor antagonist with PACAP,blocks the enhancement
same,average EPSCs,cultured neurons [9]; PACAP6-38 mixed with PACAP38,24±3 pA
